Source: US10184134B2, “Soybean event SYHT0H2 and compositions and methods for detection thereof” (Syngenta Participations AG, priority 2010, dated 2019)

Experiments:
Format in all cases: in vivo
[1] = tested on: non-transgenic soybean line Jack; assay: Field efficacy against glufosinate, non-transgenic soybean line Jack; settings: 900 g ai/ha glufosinate at V2/V3 stage and second treatment at V5-V6 stage, 8 locations in the United States
Procedure: (§1) SYHT0H2 soybean plants were tested for efficacy against glufosinate in 8 locations in the United States. The non-transgenic soybean line Jack was used as a control. Soybean plants, both SYHT0H2 and Jack, were treated with 900 g ai/ha of glufosinate at the V2/V3 stage and then a second treatment at the V5-V6 stage. They were then assessed for percentage of leaves showing injury at 4-8 days after treatment (DAT), 13-20 DAT, and 26-35 DAT.

SYHT0H2 soybean plants = assay: Field efficacy against glufosinate, SYHT0H2 soybean plants; settings: 900 g ai/ha glufosinate at V2/V3 stage and second treatment at V5-V6 stage, 8 locations in the United States
Procedure: as §1

[2] = tested on: non-transgenic soybean line Jack; assay: Field efficacy against mesotrione, non-transgenic soybean line Jack; settings: 210 g ai/ha mesotrione at V2/V3 stage, 5 locations in the United States
Procedure: (§2) Event SYHT0H2 soybean plants were tested for efficacy against mesotrione in 5 locations in the United States. The non-transgenic soybean line Jack was used as a control. Soybean plants, both SYHT0H2 and Jack, were treated with 210 g ai/ha of mesotrione at the V2/V3 stage and then assessed for percentage of leaves showing injury at 4-7 days after treatment (DAT), 13-17 DAT, and 25-33 DAT.

[3] = tested on: Event SYHT0H2 soybean plants; assay: Field efficacy against mesotrione, event SYHT0H2 soybean plants; settings: 210 g ai/ha mesotrione at V2/V3 stage, 5 locations in the United States
Procedure: as §2

[4] = tested on: Event SYHT0H2 soybean plants; assay: Herbicide tolerance performance of transgenic soybean transformants; settings: event SYHT0H2 from a population of about 90 transformants
Excerpt: After plants became established in the soil and new growth appeared (˜1-2 weeks), plants were sampled and tested for the presence of desired transgene by TAQMAN® analysis using appropriate probes for the HPPD genes, or promoters (for example prCMP). Positive plants were transplanted into 4″ square pots containing Fafard #3 soil. Sierra 17-6-12 slow release fertilizer was incorporated into the soil at the recommended rate. The plants were then relocated into a standard greenhouse to acclimatize (˜1 week). The environmental conditions were: 27° C. day; 21° C. night; 14 hour photoperiod (with supplemental light); ambient humidity. After acclimatizing (˜1 week), the plants were sampled and tested in detail for the presence and copy number of inserted transgenes. Transgenic soybean plants were grown to maturity for T1 seed production. T1 plants were grown up, and after TAQMAN® analysis, homozygous plants were grown for seed production. Transgenic seeds and progeny plants were used to further evaluate their herbicide tolerance performance and molecular characteristics.

Row | Compound | % Injury (percentage of leaves showing injury) ([1]; 4-8 DAT) [%] | % Injury (percentage of leaves showing injury) ([1]; 13-20 DAT) [%] | % Injury (percentage of leaves showing injury) ([1]; 26-35 DAT) [%] | % Injury (percentage of leaves showing injury) (SYHT0H2 soybean plants; 4-8 DAT) [%] | % Injury (percentage of leaves showing injury) (SYHT0H2 soybean plants; 13-20 DAT) [%] | % Injury (percentage of leaves showing injury) (SYHT0H2 soybean plants; 26-35 DAT) [%] | % Injury (percentage of leaves showing injury) ([2]; 4-7 DAT) [%] | % Injury (percentage of leaves showing injury) ([2]; 13-17 DAT) [%] | % Injury (percentage of leaves showing injury) ([2]; 25-33 DAT) [%] | % Injury (percentage of leaves showing injury) ([3]; 4-7 DAT) [%] | % Injury (percentage of leaves showing injury) ([3]; 13-17 DAT) [%] | % Injury (percentage of leaves showing injury) ([3]; 25-33 DAT) [%] | herbicide tolerance of event SYHT0H2 [4]
1 | 2-amino-4-methylphosphinobutyric acid [glufosinate] | 100 | 100 | 100 | 9 | 5 | 0 | – | – | – | – | – | – | –
2 | CS(=O)(=O)c1ccc(C(=O)C2C(=O)CCCC2=O)c([N+](=O)[O-])c1 [mesotrione] | – | – | – | – | – | – | 46.5 | 81 | 62.4 | 13.2 | 4.7 | 0 | high level of mesotrione tolerance
